{"source": "patent US7531575B2", "about": "“Method of modulating cellular activity and agents useful for same” (Eberhard-Karls-Universität Tübingin, priority 2002, dated 2009)", "assay_type_in_all_cases": "cell-based, murine", "key": {"iNOS [1]": {"system": "iNOS", "experiment": "iNOS activity by Griess assay (nitrite formation), LPS-stimulated N9 microglia", "conditions": "N9 cells, LPS 10 μg/mL, 48 hr, concentration series", "source_text": "(§1) TNL was a generous gift of Kissei Pharmaceuticals, LPC (Escherichia coli, 0127:BS), phorbol 12-myristate 13-acetate (PMA) and dexamethasone (DEX) were obtained from Sigma, BAY 11-7082 (BAY), NF-κB SN50 inhibitory peptide (SN50), GF 109203X (GFX) and rottlerin (ROT) were purchased from Biomol. PD098059 (PD) was obtained from Calbiochem. Purified murine interferon-γ (IFN-γ) was purchased from Roche Diagnostics. N9 murine microglial cells were a kind gift from P. Ricciardi-Castagnoli (Righi, M. et al. 1989 supra). Cells were cultured in Dulbecco's modified Eagle's medium (DMEM) supplemented with 10% fetal calf serum (FCS), 2 mM glutamine, penicillin (100 unit/mL) and streptomycin (100 μg/mL) and maintained at 37° in an atmosphere of 5% CO2. Viability was assessed by crystal violet staining.\niNOS activity was assessed by the Griess assay (Platten, M., Wick, W., Wischhusen, J. and Weller, M. Br J Pharmacol 134(6):1279-1284, 2001). Briefly, conditioned supernatant was incubated with an equal volume of Griess reagent containing 1% sulphanilamide, 0.1% naphthylethylenediamine dihydrochloride and 2.5% H3PO4 (Green, L. C., Wagner, D. A., Glogowski, J., Skipper, P. I., Wishnok, J. S, and Tannenbaum, S. R. Anal. Biochem., 126:131-138, 1982) for 5 min. at room temperature. The absorbance was measured at 546 nm. NaNO2 diluted in DMEM served as a standard. To control for cell number, the cells were stained with crystal violet. iNOS activity is expressed as nitrite accumulated in 48 hr/10^5 cells."}, "iNOS mRNA [2]": {"system": "iNOS mRNA", "experiment": "iNOS mRNA Northern blot, IFN-γ-stimulated N9 microglia", "conditions": "N9 cells, IFN-γ 200 u ml, 24 h, tranilast 300 μM", "experimental": "(§2) Tranilast was a generous gift of Kissei Pharmaceuticals (Nagano, Japan). Murine recombinant IFN-γ was purchased from Boehringer (Mannheim, Germany). Dexamethasone (DEX) was obtained from Sigma (Deisenhofen, Germany). N9 murine microglial cells were a kind gift from P. Ricciardi-Castagnoli (Milano, Italy) (Righi, M., Mori, L., De Libero, G., Sironi, M., Biondi, A., Mantovani, A., Donini, S. D. and Ricciardi-Castagnoli, P. Eur J Immunol 19(8):1443-1448, 1989). The cells were cultured in Dulbecco's modified Eagle's medium (DMEM) supplemented with 10% foetal calf serum (FCS), 2 mM glutamine and penicillin ([…])/streptomycin (100 μg ml), and maintained at 37° C. in an atmosphere of 5% CO2. Viability was assessed by crystal violet staining.\nTotal RNA was isolated using the RNeasy kit (Qiagen, Hilden, Germany). Total RNA ([…]) was separated on 1.2% agarose gels and blotted onto nylon membranes (Amersham). The filters were hybridized according to standard procedures (Platten, M., Wild-Bode, C., Wick, W., Leitlein, J., Dichgans, J., and Weller, M., Int. J. Cancer, 93:53-61, 2001) with a ^32P-labelled murine cDNA probe for iNOS. For the generation of the iNOS probe, N9 cells were stimulated with IFN-γ ([…]) for 24 h. […]"}, "iNOS [3]": {"system": "iNOS", "experiment": "iNOS activity by Griess assay (NO2 release), IFN-γ-stimulated N9 microglia", "conditions": "N9 cells, IFN-γ 200 u ml, 48 h", "experimental": "as §2\niNOS activity was assessed by the Griess assay as described elsewhere (Rieger, J., Stander, M., Loschmann, P. A., Heneka, M., Dichgans, J., Klockgether, T. and Weller, M., Oncogene, 17:2323-2332, 1998). Briefly, conditioned supernatant (100 μl) was incubated with an equal volume of 1% sulphanilamide/0.1% naphthyl ethylene diamine dihydrochloride/2.5% H3PO4 (Griess reagent) (Green, L. C., Wagner, D. A., Glogowski, J., Skipper, P. I., Wishnok, J. S, and Tannenbaum, S. R., Anal. Biochem., 126:131-138, 1982), incubated for 5 min at room temperature, and the absorbance at […] determined. Solutions of NaNO2 diluted in DMEM served as standards. The absorbance readings resulting from DMEM alone were subtracted from the sample values. Cell density was assessed using crystal violet staining to control for differences in cell proliferation. iNOS activity is thus expressed here as NO2 accumulated per 48 h per 10^5 cells."}, "PKCδ": {"system": "PKCδ", "experiment": "PKCδ translocation by immunocytochemistry in N9 microglia", "conditions": "N9 cells, PMA 100 nM, TNL 300 μM", "experimental": "Cells grown on glass coverslips were serum-starved for 16 hr, kept in Krebs Ringer HEPES buffer (125 mM NaCl, 5 mM KCl, 1.2 mM MgSO4, 2 mM CaCl2, 1.2 mM KH2PO4, 6 mM glucose, 25 mM HEPES, pH 7.4) for 1 hr and left untreated or treated with PMA (100 nM) without or with pre-incubation (1 hr) with TNL (300 μM). After fixation in ice-cold (−20′) methanol for 20 min, the cells were washed with PBS and incubated for 15 min with 0.1% NaBH4 and 0.1 M glycine in PBS to block autofluorescence. Nonspecific antibody binding was blocked for 45 min with PBG (PBS with 0.045% fish gelatin) containing 5% normal goat serum and 1% bovine serum albumin. Incubation with anti-PKCδ antibody was carried out for 24 hr at 4° after dilution in PBG containing 5% normal goat serum. After four washes with PBG, primary antibody binding was detected with an isotype-specific secondary antibody conjugated with Alexa™546 fluorescent dye. The coverslips were mounted in PermaFluor (Immunotech). Localization of the proteins was examined using confocal laser microscopy (Leica)."}, "iNOS mRNA [4]": {"system": "iNOS mRNA", "experiment": "iNOS mRNA Northern blot, LPS-stimulated N9 microglia", "conditions": "N9 cells, LPS 10 μg/mL, TNL 300 μM pretreatment 1 hr", "source_text": "as §1\nRNA was isolated using the RNeasy™ kit (Qiagen). Total RNA (10 μg) was separated on 1.2% agarose gels and blotted onto nylon membranes (Amersham). The filters were hybridized according to standard procedures with a ^32P-labeled murine cDNA probe for iNOS. For the generation of the iNOS probe, N9 cells were stimulated with IFN-γ (200 unit/mL) for 24 hr. […]"}}}
{"smiles": "COc1ccc(/C=C/C(=O)Nc2ccccc2C(=O)O)cc1OC", "note": "[tranilast, 2-[[3-(3,4-dimethoxyphenyl)-1-oxo-2-propenyl]amino]benzoic acid]", "values": [{"measurement": "nitrite formation after LPS", "setting": "iNOS [1]", "result": "concentration-dependent decrease"}, {"measurement": "IFN-γ-induced iNOS mRNA expression", "setting": "iNOS mRNA [2]", "result": "greatly suppressed"}, {"measurement": "inhibition of NO release", "setting": "iNOS [3]; concentration series", "result": "concentration-dependent inhibition"}, {"measurement": "reduction of NO release (NO2, Griess assay)", "setting": "iNOS [3]; tranilast 300 μM", "result": 65, "unit": "%"}, {"measurement": "PMA-induced translocation of PKCδ from cytosol to nucleus", "setting": "PKCδ", "result": "abolished"}, {"measurement": "LPS induction of iNOS mRNA", "setting": "iNOS mRNA [4]; 4 and 8 hr", "result": "unaffected"}, {"measurement": "LPS induction of iNOS mRNA", "setting": "iNOS mRNA [4]; 16 hr", "result": "no further increase"}]}
